One may read the EC50 as the midpoint of the concentration-response curve.

Our source for the EC50 values is patent publication US10526323B2, “Indazole and azaindazole substituted compounds as mGluR4 allosteric potentiators, compositions, and methods of treating neurological dysfunction” (Vanderbilt University, priority 2015, dated 2020).

The assay addresses mGluR4 (UniProt Q14833). As to the kind of experiment: mGluR4 potentiation assay: increase in response to an EC20 concentration of agonist (species not given). Type of assay: cell-based. To be noted: EC50 for potentiation of mGluR4; table does not state human or rat. The method, then:
The disclosed compounds and compositions can be evaluated for their ability to act as a potentiator of metabotropic glutamate receptor activity, in particular mGluR4 activity, by any suitable known methodology known in the art. For example, Chinese Hamster Ovary (CHO) cells transfected with human mGluR4 or […] co-transfected with rat mGluR4 and the G-protein regulated Inwardly Rectifying Potassium channel (GIRK) were plated in clear bottom assay plates for assay in a Hamamatsu FDSS Fluorometric Plate Reader. The cells were loaded with either a Ca2+-sensitive fluorescent dye or the thallium responsive dye and the plates were washed and placed into a suitable kinetic plate reader. For human mGluR4 assays, a fluorescence baseline was established for 3-5 seconds, the disclosed compounds were then added to the cells, and the response in cells was measured. Approximately two and a half minutes later, a concentration of mGluR4 orthosteric agonist (e.g. glutamate or L-AP4) eliciting approximately 20% (EC20) of the maximal agonist response was added to the cells, and the response was measured. Two minutes later, a concentration of mGluR4 agonist (e.g. glutamate or L-AP4) eliciting 80% (EC80) of the maximal agonist response was added to the cells, and the response was measured. For rat mGluR4/GIRK experiments, a baseline was established for approximately five seconds, disclosed compounds were added, and either an EC20 or EC80 concentration of agonist was added approximately two and one half minutes later. Potentiation of the agonist response of mGluR4 by the disclosed compounds was observed as an increase in response to the EC20 concentration of agonist in the presence of compound compared to the response to agonist in the absence of compound. Similarly, antagonism of the agonist response of mGluR4 by the disclosed compounds was observed as a decrease in response to the EC80 concentration of agonist in the presence of compound compared to the response to agonist in the absence of compound.
The above described assay operated in two modes. In the first mode, a range of concentrations of the disclosed compounds are added to cells, followed by a single fixed concentration of agonist. If the compound acts as a potentiator, an EC50 value for potentiation and a maximum extent of potentiation by the compound at this concentration of agonist is determined by non-linear curve fitting. If the compound acts as a noncompetitive antagonist, an IC50 value is determined by non-linear curve fitting. In the second mode, several fixed concentrations of the disclosed compounds are added to various wells on a plate, followed by a range in concentrations of agonist for each concentration of disclosed compound. The EC50 values for the agonist at each concentration of compound are determined by non-linear curve fitting. A decrease in the EC50 value of the agonist with increasing concentrations of the sample compound (a leftward shift of the agonist concentration-response curve) is an indication of the degree of mGluR4 potentiation at a given concentration of the sample compound. A decrease in the maximal response of the agonist with increasing concentrations of the sample compounds, with or without a rightward shift in agonist potency, is an indication of the degree of noncompetitive antagonism at mGluR4. The second mode also indicates whether the sample compounds also affect the maximum response to mGluR4 to agonists.
These compounds are positive allosteric modulators (potentiators) of human and rat mGluR4 and were selective for mGluR4 compared to the other seven subtypes of metabotropic glutamate receptors.
On to `Cc1nn(C)c2ncc(Nc3n[nH]c4cccnc34)cc12` [Example 268, N-(1,3-dimethyl-1H-pyrazolo[3,4-b]pyridin-5-yl)-1H-pyrazolo[4,3-b]pyridin-3-amine], for which the half-maximal effective concentration (EC50) was greater than 30000 nM. For the compound `Cc1nn(C(C)C)c2cc(Nc3n[nH]c4nccnc34)ccc12` [Example 18, N-(1-isopropyl-3-methyl-1H-indazol-6-yl)-1H-pyrazolo[3,4-b]pyrazin-3-amine], the EC50 was greater than 10000 nM. With `Cc1ccc(-n2nc(C)c3cc(Nc4n[nH]c5cccnc45)ccc32)cc1` [Example 93, N-(3-methyl-1-(p-tolyl)-1H-indazol-5-yl)-1H-pyrazolo[4,3-b]pyridin-3-amine] the figure was greater than 10000 nM. With `Cn1nc(C#N)c2ccc(Nc3n[nH]c4cccnc34)cc21` [Example 177, 1-methyl-6-(1H-pyrazolo[4,3-b]pyridin-3-ylamino)indazole-3-carbonitrile] the figure was 467 nM; with `c1cnc2c(Nc3ccc4nn(CC5CCC5)cc4c3)n[nH]c2n1` [Example 87, N-(2-(cyclobutylmethyl)-2H-indazol-5-yl)-1H-pyrazolo[3,4-b]pyrazin-3-amine], 749 nM. The result for `CCCCn1nc(Cl)c2cc(Nc3n[nH]c4cccnc34)ccc21` [Example 281, N-(1-butyl-3-chloro-1H-indazol-5-yl)-1H-pyrazolo[4,3-b]pyridin-3-amine] reads 2430 nM; that for `Cn1nc(Oc2cccc(C#N)n2)c2ccc(Nc3n[nH]c4cccnc34)cc21` [Example 231, 6-((6-((1H-pyrazolo[4,3-b]pyridin-3-yl)amino)-1-methyl-1H-indazol-3-yl)oxy)picolinonitrile], 119 nM; that for `Clc1cc(Nc2n[nH]c3cccnc23)cc2cnn(CC3CCC3)c12` [Example 65, N-(7-chloro-1-(cyclobutylmethyl)-1H-indazol-5-yl)-1H-pyrazolo[4,3-b]pyridin-3-amine], 76 nM. As to `Cn1nc(Cl)c2ccc(Nc3n[nH]c4cccnc34)cc21` [Example 31, N-(3-chloro-1-methyl-1H-indazol-6-yl)-1H-pyrazolo[4,3-b]pyridin-3-amine], the EC50 came out at 171 nM.

Turning to `COc1ccc(-c2nn(C)c3cc(Nc4n[nH]c5cccnc45)ccc23)cn1` [Example 180, N-[3-(6-methoxy-3-pyridyl)-1-methyl-indazol-6-yl]-1H-pyrazolo[4,3-b]pyridin-3-amine], the EC50 was greater than 10000 nM.

Turning to `Cc1ccccc1Cc1nn(C)c2cc(Nc3n[nH]c4cccnc34)ccc12` [Example 48, N-(1-methyl-3-(2-methylbenzyl)-1H-indazol-6-yl)-1H-pyrazolo[4,3-b]pyridin-3-amine], the concentration for a half-maximal effect (EC50) came out at 4400 nM.

Regarding `Cn1nc(C(=O)N2CC[C@H](F)C2)c2ccc(Nc3n[nH]c4cccnc34)cc21` [Example 171, [(3S)-3-fluoropyrrolidin-1-yl]-[1-methyl-6-(1H-pyrazolo[4,3-b]pyridin-3-ylamino)indazol-3-yl]methanone], the EC50 turned out to be 765 nM.

`Cn1nc(N2CC(C)(C3CC3)CC2=O)c2ccc(Nc3n[nH]c4ccccc34)cc21` (stereo not drawn) [Example 41, 1-(6-((1H-indazol-3-yl)amino)-1-methyl-1H-indazol-3-yl)-4-cyclopropyl-4-methylpyrrolidin-2-one]: the EC50 was 1420 nM.

Turning to `FC(F)(F)Cn1nc(Cl)c2cc(Nc3n[nH]c4cccnc34)ccc21` [Example 275, N-(3-chloro-1-(2,2,2-trifluoroethyl)-1H-indazol-5-yl)-1H-pyrazolo[4,3-b]pyridin-3-amine], the EC50 was found to be 2720 nM. The result for `Cc1nn(CC(=O)O)c2ccc(Nc3n[nH]c4cccnc34)cc12` [Example 135, 2-(5-((1H-pyrazolo[4,3-b]pyridin-3-yl)amino)-3-methyl-1H-indazol-1-yl)acetic acid] reads 832 nM; that for `Clc1cc(Nc2n[nH]c3nccnc23)cc2cnn(CC3CCC3)c12` [Example 64, N-(7-chloro-1-(cyclobutylmethyl)-1H-indazol-5-yl)-1H-pyrazolo[3,4-b]pyrazin-3-amine], 67 nM; that for `[2H]C([2H])([2H])n1nc(C)c2cc(Nc3n[nH]c4cccnc34)ccc21` [Example 123, N-(3-methyl-1-(methyl-d3)-1H-indazol-5-yl)-1H-pyrazolo[4,3-b]pyridin-3-amine], 218 nM. Take `Cn1nc(OC2CCS(=O)(=O)CC2)c2ccc(Nc3n[nH]c4cccnc34)cc21` [Example 192, N-[3-(1,1-dioxothian-4-yl)oxy-1-methyl-indazol-6-yl]-1H-pyrazolo[4,3-b]pyridin-3-amine]: the EC50 amounted to 185 nM. With `Cn1nc(OC2COC2)c2ccc(Nc3n[nH]c4cccnc34)cc21` [Example 216, N-[1-methyl-3-(oxetan-3-yloxy)indazol-6-yl]-1H-pyrazolo[4,3-b]pyridin-3-amine] the figure was 629 nM.

Regarding `Cn1nc(C2CC2)c2ccc(Nc3n[nH]c4c3CC(F)(F)CC4)cc21` [Example 14, 3-cyclopropyl-N-(5,5-difluoro-4,5,6,7-tetrahydro-1H-indazol-3-yl)-1-methyl-1H-indazol-6-amine], the EC50 is greater than 10000 nM. The result for `c1ccc2c(Nc3cnc4cnn(CC5CCC5)c4c3)n[nH]c2c1` [Example 27, 1-(cyclobutylmethyl)-N-(1H-indazol-3-yl)-1H-pyrazolo[4,3-b]pyridin-6-amine] reads greater than 10000 nM; that for `CCC(C)n1nc2ccc(Nc3n[nH]c4cccnc34)cc2c1C` (stereo not drawn) [Example 105, N-(2-(sec-butyl)-3-methyl-2H-indazol-5-yl)-1H-pyrazolo[4,3-b]pyridin-3-amine], greater than 10000 nM. The result for `Cc1n[nH]c2ccc(Nc3n[nH]c4cccnc34)cc12` [Example 79] reads 813 nM; that for `Cc1nn(C2CCCC2)c2ncc(Nc3n[nH]c4cccnc34)cc12` [Example 254, 1-cyclopentyl-3-methyl-N-(1H-pyrazolo[4,3-b]pyridin-3-yl)pyrazolo[3,4-b]pyridin-5-amine], greater than 10000 nM. The result for `Cc1nn(CCN2CCOCC2)c2ccc(Nc3n[nH]c4cccnc34)cc12` [Example 132, N-(3-methyl-1-(2-morpholinoethyl)-1H-indazol-5-yl)-1H-pyrazolo[4,3-b]pyridin-3-amine] reads 330 nM.

For the compound `CC(C)Oc1nn(C)c2cc(Nc3n[nH]c4cccnc34)ccc12` [Example 44, N-(3-isopropoxy-1-methyl-1H-indazol-6-yl)-1H-pyrazolo[4,3-b]pyridin-3-amine], the EC50 worked out at 413 nM.

As to `Cc1cc(Nc2n[nH]c3nccnc23)cc2c1cnn2C` [Example 51, N-(1,4-dimethyl-1H-indazol-6-yl)-1H-pyrazolo[3,4-b]pyrazin-3-amine], the EC50 was determined as 150 nM. As for `Cn1nc(C2(C)CC2)c2ccc(Nc3n[nH]c4cccnc34)cc21` [Example 28, N-(1-methyl-3-(1-methylcyclopropyl)-1H-indazol-6-yl)-1H-pyrazolo[4,3-b]pyridin-3-amine], the EC50 is 68 nM. For `c1cnc2c(Nc3ccc4nn(CC5CCC5)cc4c3)n[nH]c2c1` [Example 89, N-(2-(cyclobutylmethyl)-2H-indazol-5-yl)-1H-pyrazolo[4,3-b]pyridin-3-amine], the concentration for a half-maximal effect (EC50) was greater than 10000 nM. With `c1cnc2c(Nc3cnc4cnn(CC5CCC5)c4c3)n[nH]c2c1` [Example 142, N-(1-(cyclobutylmethyl)-1H-pyrazolo[4,3-b]pyridin-6-yl)-1H-pyrazolo[4,3-b]pyridin-3-amine] the figure was greater than 10000 nM; with `Cn1nc(O)c2ccc(Nc3n[nH]c4cccnc34)cc21` [Example 37, 6-((1H-pyrazolo[4,3-b]pyridin-3-yl)amino)-1-methyl-1H-indazol-3-ol], 3150 nM; with `COc1cc(Nc2n[nH]c3nccnc23)cc2c1cnn2C` [Example 53, N-(4-methoxy-1-methyl-1H-indazol-6-yl)-1H-pyrazolo[3,4-b]pyrazin-3-amine], 247 nM. With `Cc1nn(CC(C)(C)C)c2ncc(Nc3n[nH]c4cccnc34)cc12` [Example 262, 1-(2,2-dimethylpropyl)-3-methyl-N-(1H-pyrazolo[4,3-b]pyridin-3-yl)pyrazolo[3,4-b]pyridin-5-amine] the figure was 160 nM.
